Assay results published in patent publication US10675333B2, “Infusion pump” (priority 2016, dated 2020).

Test system: subject with a body weight of 51.5 kg
Test: GnRH stimulation test (LH and FSH levels)
Assay type: in vivo, human
Experimental: In the test, a subject with a body weight of 51.5 kg was included, and their luteinizing hormone (LH) and follicle-stimulating hormone (FSH) levels were measured as test indicators both in mIU/mL.

With “GnRH: stimulating agent of the GnRH stimulation test; not further described (QHWSYGLRPG; Gonadoliberin-1; UniProt P01148 24-33, looked up)” the FSH (0 min (reference time)) was 3.49 mIU/mL, the LH (0 min (reference time)) was 0.99 mIU/mL and the FSH (25 min) was 4.47 mIU/mL. It also gave an LH (25 min) of 3.2 mIU/mL, an FSH (45 min) of 5.44 mIU/mL and an LH (45 min) of 3.76 mIU/mL. It also gave an FSH (90 min) of 6.21 mIU/mL, an LH (90 min) of 3.76 mIU/mL and an FSH (180 min) of 6.12 mIU/mL. For the same substance, the LH (180 min) was 2.46 mIU/mL, the FSH maximum level (maximum stimulated level) was 6.21 mIU/mL and the LH maximum level (maximum stimulated level) was 3.76 mIU/mL.
